# In patent US20040224979A1, “Treating obesity with selective androgen receptor modulators” (priority 2002, published 2004):
# What was measured:
# leptin = experiment: Serum leptin levels in intact male rats (ELISA) after SARM treatment by osmotic pump; settings: for Leptin, percent of control / Normalized Leptin, percent of control: control = 100%; for Normalized Leptin: serum leptin normalized to body weight; for Leptin: serum, intact male rats, 500 μg/day s.c. osmotic pump
# Description: All doses were delivered by subcutaneous placement of Alzet osmotic pumps.
# Seven, 14 and 28 days after pump implantation, animals were exsanguinated under ketamine/xylazine anesthesia. Serum was collected, separated into 10 aliquots and stored at −80° C.
# Serum concentrations of testosterone (T), leptin, Insulin and IGF-1 were determined by commercially available ELISA kits.
# [1] = Organ weights in intact male rats (tissue-selective anabolic activity); assay type: in vivo, Sprague-Dawley rats; settings: 500 μg/day
# androgen receptor (AR) = experiment: In vitro androgen receptor binding affinity
# [2] = Whole body DEXA body composition (lean body mass, body fat) in ovariectomized female rats; assay type: in vivo, Sprague-Dawley rats; settings: 3 mg/day s.c., 90 day time point
# Description: Two hundred and thirty (230) female Sprague-Dawley rats (23 weeks of age) were used in these studies.
# Animals were randomized (n=10 per group) into each of the treatment groups outlined in Table 2 below. Animals assigned to groups 6 through 23 were ovariectomized on day 0 of the experiment.
# Drug administration with Compound VI, bicalutamide (an antiandrogen), and/or DHT commenced on day 0 or 90 with the compound of interest administered via daily subcutaneous injection (0.20 mL) and continued until day 120 or 210 of the study. Drug solutions were prepared daily by dissolving in DMSO and dilution with PEG 300. The percentage of DMSO was the same in all vehicles (17.6%), as determined based on the solubility of the test compounds.
# Whole body DEXA images were collected up to 120 or 210 days after ovariectomy, as described in Table 2. Lean body mass (LBM), fat mass (FM) and total body mass (TBM) were determined at each time point.
Compound,decrease of serum leptin levels compared with the vehicle control (leptin; 2 w),decrease of serum leptin levels compared with the vehicle control (leptin; 4 w),"Leptin, percent of control (leptin; 1 w)","Normalized Leptin, percent of control (leptin; 1 w)","Leptin, percent of control (leptin; 2 w)","Normalized Leptin, percent of control (leptin; 2 w)","Leptin, percent of control (leptin; 4 w)","Normalized Leptin, percent of control (leptin; 4 w)",Normalized Leptin (leptin; 1 w),Normalized Leptin (leptin; 2 w),Normalized Leptin (leptin; 4 w),Leptin (leptin; 1 w),Leptin (leptin; 2 w),Leptin (leptin; 4 w),changes in organ weight [1],in vitro androgen receptor (AR) binding affinity (androgen receptor (AR)),decrease in body fat as compared to the ovariectomized (OVX) control group [2],increase in lean mass as compared to the ovariectomized (OVX) control group [2]
C[C@](O)(COc1ccc(F)cc1)C(=O)Nc1ccc([N+](=O)[O-])c(C(F)(F)F)c1 [Compound VII],36%,22%,(84%),(81%),(64%),(63%),(77%),(78%),5.80 ± 1.73 (pg/ml)/BW (g),5.47 ± 1.03 (pg/ml)/BW (g),13.82 ± 1.17 (pg/ml)/BW (g),1.45 ± 0.47 ng/mL,1.68 ± 0.29 ng/mL,4.89 ± 0.61 ng/mL,tissue-selective anabolic activity,–,–,–
CC(=O)Nc1ccc(OC[C@](C)(O)C(=O)Nc2ccc([N+](=O)[O-])c(C(F)(F)F)c2)cc1 [Compound VI],–,–,(96%),(93%),(107%),(104%),(104%),(105%),6.65 ± 1.07 (pg/ml)/BW (g),8.99 ± 0.99 (pg/ml)/BW (g),18.7 ± 4.2 (pg/ml)/BW (g),1.71 ± 0.31 ng/mL,2.81 ± 0.29 ng/mL,6.62 ± 1.12 ng/mL,tissue-selective anabolic activity,high,3.6%,9%
"CCC(=O)O[C@H]1CC[C@H]2[C@@H]3CCC4=CC(=O)CC[C@]4(C)[C@H]3CC[C@]12C [TP, testosterone propionate, reference compound]",–,–,(102%),(93%),(84%),(92%),(92%),(90%),6.67 ± 1.96 (pg/ml)/BW (g),7.04 ± 1.97 (pg/ml)/BW (g),16.0 ± 1.7 (pg/ml)/BW (g),1.74 ± 0.53 ng/mL,2.19 ± 0.67 ng/mL,5.89 ± 0.77 ng/mL,–,–,–,–
